The values that follow are results of earlier work, collected in US20110086102A1, “DELAYED RELEASE COMPOSITIONS” (Teva Pharmaceutical Industries Ltd., priority 2009, published 2011).

Like-named read-outs stand apart in the source and are kept apart here.

On to `COc1c(C)c2c(c(O)c1C/C=C(\C)CCC(=O)[O-])C(=O)OC2.[Na+]` [Mycophenolate sodium, (E)-6-(4-hydroxy-6-methoxy-7-methyl-3-oxo-1,3-dihydro-isobenzofuran-5-yl)-4-methylhex-4-enoic acid sodium salt], for which the Solubility result is recorded as “practically insoluble” (0.1N hydrochloric acid) and “highly soluble” (aqueous media at physiological pH).
